Measured values reported in BindingDB's records for patent WO2022070071 (JANSSEN BIOTECH, INC., 2022).

Target: Dihydroorotate dehydrogenase (quinone), mitochondrial (Homo sapiens, UniProt Q02127)
Experiment: DHODH enzymatic assay
Experimental: To detect DHODH enzyme activities, dichloroindophenol (DCIP) is added as the final electron acceptor in the assay. DCIP can accept electrons from the reduced coenzyme Q generated in the assay, or from dihydroorotate (DHO) via FMN by binding presumably to the ubiquinone pocket. […] The assay buffer contained […], pH 7.5, 150 mM NaCl, 0.5 mM EDTA, and 0.1% Triton X-100 in MilliQ water. Substrate consisting of 20 mM DHO, 5mM CoQ6, and 1mM DCIP in assay buffer, initiates the reaction. […] Absorbance measurements were obtained using the BMG Phera Star plate-reading spectrophotomer. Purified human DHODH was purchased from Proteros (cat. No. PR-0044). Chemicals were purchased from Sigma-Aldrich, Teknova, and Avanti Polar Lipids. Liquid handling was performed using Labcyte Echo and Formulatrix Tempest.

Dihydroorotate dehydrogenase (quinone), mitochondrial, sequence (Q02127 whole entry): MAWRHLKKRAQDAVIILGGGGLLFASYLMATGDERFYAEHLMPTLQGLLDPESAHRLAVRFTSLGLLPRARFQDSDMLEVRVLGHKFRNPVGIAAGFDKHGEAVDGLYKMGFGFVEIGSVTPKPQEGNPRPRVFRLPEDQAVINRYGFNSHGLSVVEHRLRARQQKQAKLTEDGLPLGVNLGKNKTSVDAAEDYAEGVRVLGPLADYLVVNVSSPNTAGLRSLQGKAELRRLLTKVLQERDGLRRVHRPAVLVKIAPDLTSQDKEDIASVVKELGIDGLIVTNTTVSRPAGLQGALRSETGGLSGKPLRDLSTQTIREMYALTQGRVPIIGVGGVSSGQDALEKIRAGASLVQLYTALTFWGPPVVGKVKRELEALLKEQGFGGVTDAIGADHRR

SMILES | IC50
Cc1ccccc1-c1cc(C(C)C)c2cc(-c3cn(C)c(C(C)(C)O)n3)c(F)cn2c1=O [WO2022070071, Example 1] | 2.11 nM
Cc1n[nH]c(Cl)c1-c1cc(C(C)C)c2cc(-c3cn(C)c(C(C)(C)O)n3)c(F)cn2c1=O [WO2022070071, Example 4] | 2.69 nM
Cc1n[nH]c(Cl)c1-c1cc(C(C)C)c2cc(-c3nc(C(C)(C)O)n(C)n3)c(F)cn2c1=O [WO2022070071, Example 5] | 2.1 nM
Cc1n[nH]c(C(F)(F)F)c1-c1cc(C(C)C)c2cc(-c3cn(C)c(C(C)(C)O)n3)c(F)cn2c1=O [WO2022070071, Example 6] | 4.07 nM
Cc1n[nH]c(C(F)(F)F)c1-c1cc(C(C)C)c2cc(-c3nc(C(C)(C)O)n(C)n3)c(F)cn2c1=O [WO2022070071, Example 7] | 2.51 nM
Cc1ccnc(Cl)c1-c1cc(C(C)C)c2cc(-c3cn(C)c(C(C)(C)O)n3)c(F)cn2c1=O [WO2022070071, Example 8] | 13 nM
Cc1ccnc(Cl)c1-c1cc(C(C)C)c2cc(-c3nc(C(C)(C)O)n(C)n3)c(F)cn2c1=O [WO2022070071, Example 9] | 13 nM
